Earlier results as cited in US20130071326A1, “UNIVERSAL CELL-DIRECTED THERANOSTICS” (Board of Regents of the University of Texas System, priority 2010, published 2013).

System: tumor
Conditions: conventional DOX treatments, at best

For COc1cccc2c1C(=O)c1c(O)c3c(c(O)c1C2=O)C[C@@](O)(C(=O)CO)C[C@@H]3O[C@H]1C[C@H](N)[C@H](O)[C@H](C)O1 [DOX, doxorubicin], the “accumulation of the drug at the tumor” value is given as 0.8 to 5 µg.
